Key:
Assay in all cases: relative viability (nuclei count vs DMSO), 5 days (fraction); higher = more cells survive
BI-2536 + Luminespib = compound: CC[C@@H]1C(=O)N(C)c2cnc(Nc3ccc(C(=O)NC4CCN(C)CC4)cc3OC)nc2N1C1CCCC1 [BI-2536] + CCNC(=O)c1noc(-c2cc(C(C)C)c(O)cc2O)c1-c1ccc(CN2CCOCC2)cc1 [Luminespib] (partner 0.01 µM)
Summary of the method: (§1)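 Lung cancer cell lines in 1536-well plates were dosed by pin tool the day after seeding, either with one drug alone or with a fixed anchor-drug dose plus five library-drug doses (not always all listed) in √10 steps. After 5 days, cells were fixed and their nuclei stained in one step (final 0.05% Triton X-100, 1% formaldehyde, 1 ug/ml Hoechst), then counted on 4× images. Relative viability is the nuclei count in treated wells divided by that in vehicle wells. Values are medians of duplicate plates.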

BI-2536 + Olaparib = compound: CC[C@@H]1C(=O)N(C)c2cnc(Nc3ccc(C(=O)NC4CCN(C)CC4)cc3OC)nc2N1C1CCCC1 [BI-2536] + O=C(c1cc(Cc2n[nH]c(=O)c3ccccc23)ccc1F)N1CCN(C(=O)C2CC2)CC1 [Olaparib] (partner 8 µM)
Summary of the method: as §1

BI-2536 + Tozasertib = compound: CC[C@@H]1C(=O)N(C)c2cnc(Nc3ccc(C(=O)NC4CCN(C)CC4)cc3OC)nc2N1C1CCCC1 [BI-2536] + Cc1cc(Nc2cc(N3CCN(C)CC3)nc(Sc3ccc(NC(=O)C4CC4)cc3)n2)n[nH]1 [Tozasertib] (partner 0.1 µM)
Summary of the method: as §1

[1] = compound: CC1CC(=O)N(C2=CN=C(N=C2N1C3CCCC3)NC4=C(C=C(C=C4)C(=O)NC5CCN(CC5)C)OC)C [NPK76-II-72-1] + O=C(CCCCCCC(=O)Nc1ccccc1)NO [Vorinostat] (partner 1 µM)
Summary of the method: as §1

Cell Line	relative viability (BI-2536 + Luminespib; first compound 0.01 µM)	relative viability (BI-2536 + Luminespib; first compound 0.03162 µM)	relative viability (BI-2536 + Luminespib; first compound 0.1 µM)	relative viability (BI-2536 + Luminespib; first compound 0.3162 µM)	relative viability (BI-2536 + Luminespib; first compound 1 µM)	relative viability (BI-2536 + Olaparib; first compound 0.01 µM)	relative viability (BI-2536 + Olaparib; first compound 0.03162 µM)	relative viability (BI-2536 + Olaparib; first compound 0.1 µM)	relative viability (BI-2536 + Olaparib; first compound 0.3162 µM)	relative viability (BI-2536 + Olaparib; first compound 1 µM)	relative viability (BI-2536 + Tozasertib; first compound 0.01 µM)	relative viability (BI-2536 + Tozasertib; first compound 0.03162 µM)	relative viability (BI-2536 + Tozasertib; first compound 0.1 µM)	relative viability (BI-2536 + Tozasertib; first compound 0.3162 µM)	relative viability (BI-2536 + Tozasertib; first compound 1 µM)	relative viability ([1]; first compound 0.01 µM)	relative viability ([1]; first compound 0.03162 µM)	relative viability ([1]; first compound 0.1 µM)	relative viability ([1]; first compound 0.3162 µM)	relative viability ([1]; first compound 1 µM)
NCI-H2087	0.161	0.182	0.139	0.136	0.157	0.614	0.673	0.471	0.0859	0.102	0.25	0.214	0.155	0.119	0.12	0.569	0.854	0.572	0.485	0.814
NCI-H1437	1.14	0.961	0.729	0.2	0.164	0.6	0.494	0.339	0.23	0.247	0.465	0.432	0.389	0.333	0.237	0.779	0.907	0.736	0.748	0.894
NCI-H2342	0.883	0.661	0.676	0.38	0.369		0.424	0.367	0.319	0.26	0.449	0.508	0.468	0.378	0.294	0.742	0.917	0.783	0.658	0.763
ChaGo-K-1	0.691	0.615	0.529	0.16	0.178	0.414	0.308	0.265	0.164	0.15	0.216	0.227	0.219	0.211	0.239	0.703	0.735	0.809	0.687	0.789
NCI-H650	0.728	0.622	0.21	0.13	0.103	0.407	0.28	0.237	0.146	0.105	0.64	0.529	0.358	0.181	0.16	0.445	0.441	0.453	0.307	0.521
COR-L23	0.668	0.705	0.171	0.106	0.122	0.384	0.288	0.156	0.111	0.111	0.196	0.189	0.137	0.145	0.151	0.408	0.519	0.408	0.427	0.48
COR-L 105	0.882	0.514	0.434	0.325	0.327	0.655	0.668	0.679	0.404	0.296	0.351	0.408	0.299	0.306	0.333	0.747	0.807	0.832	0.82	0.989
LK-2	0.184	0.176	0.155	0.177	0.176	0.578	0.491	0.28	0.098	0.134	0.152	0.151	0.173	0.187	0.185	0.451	0.263	0.36	0.165	0.327

— the supplement of paper PMC10307832
